According to patent US6897208B2, “Benzimidazoles” (Aventis Pharmaceuticals Inc., priority 2001, dated 2005):

Target: T1, human KDR enzyme (Homo sapiens, UniProt P35968)
T1 construct: The cytoplasmic domain of human KDR enzyme is cloned in the form of a GST fusion; GST; made in house; host or cells: SF21 insect cells (baculovirus, pFastBac)
T1 sequence (P35968 786-1356 limits assumed): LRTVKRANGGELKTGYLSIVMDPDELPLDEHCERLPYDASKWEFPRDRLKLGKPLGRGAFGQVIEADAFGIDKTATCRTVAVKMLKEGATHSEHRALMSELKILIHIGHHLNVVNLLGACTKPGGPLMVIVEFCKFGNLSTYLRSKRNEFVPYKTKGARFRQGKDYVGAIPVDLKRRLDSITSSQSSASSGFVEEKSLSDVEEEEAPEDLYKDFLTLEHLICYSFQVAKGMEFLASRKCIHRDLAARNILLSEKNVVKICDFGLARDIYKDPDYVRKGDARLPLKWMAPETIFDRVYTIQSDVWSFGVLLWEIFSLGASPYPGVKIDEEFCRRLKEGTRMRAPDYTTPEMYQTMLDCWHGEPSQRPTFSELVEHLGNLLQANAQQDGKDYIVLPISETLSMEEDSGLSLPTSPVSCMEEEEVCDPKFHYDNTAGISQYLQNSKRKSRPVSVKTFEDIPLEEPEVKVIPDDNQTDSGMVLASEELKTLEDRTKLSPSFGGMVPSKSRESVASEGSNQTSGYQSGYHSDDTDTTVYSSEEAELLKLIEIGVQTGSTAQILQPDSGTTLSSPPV
Assay: Phosphorylation of PLCγ substrate by the enzyme KDR in vitro (flashplate technique)
Type: biochemical
Settings: read-out: IC50 (μM) on inhibition of the phosphorylation of PLCγ by KDR
Description: 1. Inhibitory Effects of Compounds on KDR
The inhibitory effect of the compounds is determined in a test of phosphorylation of a substrate by the enzyme KDR in vitro by the flasplate technique (96-well plate, NEN).
The cytoplasmic domain of human KDR enzyme is cloned in the form of a GST fusion into the baculovirus expression vector pFastBac. The protein is expressed in the SF21 cells and purified to about 60% homogeneity.
The kinase activity of KDR is measured in 20 mM MOPS, 10 mM MgCl2, 10 mM MnCl2, 1 mM DTT, 2.5 mM EGTA, 10 mM β glycerophosphate, pH 7.2 in the presence of 10 mM MgCl2, 100 μM Na3VO4, 1 mM NaF. 10 μl of the compound are added to 70 μl of kinase buffer containing 100 ng of KDR enzyme at 4° C. The reaction is initiated by adding 20 μl of solution containing 2 μg of substrate (fragment SH2-SH3 of PLCγ expressed in the form of a GST fusion protein), 2 μCi γ33P[ATP] and 2 μM cold ATP. After incubating for 1 hour at 37° C., the reaction is quenched by adding 1 volume (100 μl) of 200 mM EDTA. The incubation buffer is removed and the wells are washed three times with 300 μl of PBS. The radioactivity is measured in each well using a Top Count NXT instrument (Packard).
Background noise is determined by measuring the radioactivity in wells in quadruplet containing radioactive ATP and the substrate alone.
An activity control is measured in wells in quadruplet containing all the reagents (γ33P-[ATP], KDR and the substrate PLCγ) and in the absence of compound.
The inhibition of the KDR activity with the compound of the invention is expressed as a percentage of inhibition of the control activity determined in the absence of compound.
The compound SU5614 (Calbiochem) (1 μM) is included in each plate as inhibition control.
The IC50 values for the compounds are calculated by plotting the dose-response curves. The IC50 corresponds to the concentration of compound that induces a 50% inhibition of the kinase activity.
Work on “2-(1H-Indazol-3-yl)-1H-benzimidazole-5-carboxylic acid N-(2-furfuryl)amide [Example 12]” yielded an IC50 of 0.16 µM. With “2-(1H-Indazol-3-yl)-1H-benzimidazole-5-carboxylic acid N-(N′-methyl-piperazino)amide [Example 8]” the IC50 was 0.67 µM. “2-(1H-Indazol-3-yl)-1H-benzimidazole-5-carboxylic acid N-morpholinoamide [Example 7]” showed an IC50 of 0.72 µM. Compound “2-(1H-Indazol-3-yl)-1H-benzimidazole-5-carboxylic acid N-pyrrolidinoamide [Example 9]” has an IC50 of 0.35 µM.

Test system: not given
Assay: not given
Settings: not given
Compound `Cc1cc(-c2nc3ccccc3[nH]2)n[nH]1` [Example 236, 2-(5-Methyl-1H-pyrazol-3-yl)-1H-benzoimidazole] has a melting point of 322 to 324 °C. `CCOc1cc(-c2nc3ccccc3[nH]2)n[nH]1` [Example 237, 2-(5-Ethoxy-1H-pyrazol-3-yl)-1H-benzoimidazole] showed a melting point of 217 to 219.5 °C. In the case of `CSc1cc(-c2nc3ccccc3[nH]2)no1` [Example 238, 2-(5-Methylsulfanyl-isoxazol-3-yl)-1H-benzoimidazole], the melting point is reported as 179 to 181 °C. In the case of `CSc1cc(-c2nc3ccccc3[nH]2)n[nH]1` [Example 240, (Benzoimidazol-2-yl)-5-methylthio-3-pyrazole], the melting point is reported as 242 °C. For `COc1cc2nc(-c3n[nH]cc3NC(=O)C3CC3)[nH]c2cc1Cl` [Example 258(a), Cyclopropanecarboxylic acid [3-(6-chloro-5-methoxy-1H-benzoimidazol-2-yl)-1H-pyrazol-4-yl]-amide], the melting point was 225 to 226 °C.
